Measurements as given in patent publication US12568967B2, “Compositions comprising pyridine carboxylate herbicides with synthetic auxin herbicides or auxin transport inhibitors” (priority 2018, dated 2026).
Read-outs that look alike come from different tables or passages of the source.

Legend:
[1] = tested on: Brassica napus (spring rape, BRSNN); assay: Greenhouse postemergence trial BRSNN; assay type: in vivo; settings: for % visual injury (Obs): BRSNN
Method: (§1) The plants were grown for 7-36 days (d) in a greenhouse with an approximate 14-hour (h) photo-period which was maintained at about 23° C. during the day and 22° C. during the night. Nutrients and water were added on a regular basis and supplemental lighting was provided with overhead metal halide 1000-Watt lamps as necessary. The plants were employed for testing when they reached the second or third true leaf stage.
(§2) The emulsifiable concentrates also included a safener, cloquintocet-mexyl, at 120 grams active ingredient per liter (g ai/L), unless otherwise noted below.
(§3) Control plants were sprayed in the same manner with the solvent blank. All pyridine carboxylate herbicide (component a) application rates are given as “g ae/ha” and all synthetic auxin herbicide or auxin transport inhibitor (component b) application rates are given as “g ai/ha.”
(§4) The treated plants and control plants were placed in a greenhouse as described above and watered by sub-irrigation to prevent wash-off of the test compounds. After 20-22 d, the condition of the test plants as compared with that of the control plants was determined visually and scored on a scale of 0 to 100 percent where 0 corresponds to no injury and 100 corresponds to complete kill.

[2] = tested on: Triticum aestivum (spring wheat, TRZAS); assay type: in vivo; settings: for % visual injury (Obs) / % visual injury Obs: TRZAS
[3] = tested on: Hordeum vulgare (spring barley, HORVS); assay type: in vivo; settings: for % visual injury (Obs) / % visual injury Obs: HORVS
[4] = tested on: Polygonum convolvulus (wild buckwheat, POLCO); assay: Greenhouse postemergence trial POLCO; assay type: in vivo; settings: POLCO
[5] = tested on: Kochia scoparia (kochia, KCHSC); assay: Greenhouse postemergence trial KCHSC; assay type: in vivo; settings: KCHSC
Method: (§5) Seeds of the desired test plant species were planted in a 90:10% v/v (volume/volume) mixture of PRO-MIX® BX (Premier Tech Horticulture, Quakertown, PA, USA) and PROFILE® GREENS GRADE™ (Profile Products LLC, Buffalo Grove, IL, USA) planting mixture, which typically has a pH of 5.2 to 6.2 and an organic matter content of at least 50 percent, in plastic pots with a surface area of 103.2 square centimeters (cm^2). […] The plants were grown for 7-36 days (d) in a greenhouse with an approximate 14-hour (h) photo-period which was maintained at about 23° C. during the day and 22° C. during the night. Nutrients and water were added on a regular basis and supplemental lighting was provided with overhead metal halide 1000-Watt lamps as necessary. The plants were employed for testing when they reached the second or third true leaf stage.
(§6) Emulsifiable concentrates of each of each pyridine carboxylate herbicide (Compound A or Compound B) were prepared at 100 grams acid equivalent per liter (g ae/L). The emulsifiable concentrates also included a safener, cloquintocet-mexyl, at 120 grams active ingredient per liter (g ai/L), unless otherwise noted below. An aliquot of each emulsifiable concentrate was placed in a 25 mL glass vial and diluted with an aqueous mixture of 1.25% (v/v) ACTIROB® B esterified rapeseed oil (Bayer Crop Science, Research Triangle Park, NC, USA) or MSO® Concentrate with LECI-TECH® methylated soybean oil (Loveland Products, Loveland, CO, USA) to obtain concentrated stock solutions at the highest application rate for each herbicide, based upon a 12 milliliter (mL) application volume at a rate of 187 liters per hectare (L/ha). The concentrated stock solutions were further diluted with an aqueous mixture of 1.25% v/v ACTIROB® B or MSO® Concentrate with LECI-TECH® to obtain stock solutions at reduced application rates for each herbicide. Spray solutions of the herbicide combinations (Compound A or Compound B plus synthetic auxin herbicide or auxin transport inhibitor) were prepared by adding weighed amounts or aliquots of the synthetic auxin herbicide or auxin transport inhibitor to the stock solutions of Compound A or Compound B to form 12-mL spray solutions in two-way combinations.
(§7) The spray solutions were applied to the plant material with an overhead Mandel track sprayer equipped with 8002E nozzles calibrated to deliver 187 L/ha over an application area of 0.503 square meters (m^2) at a spray height of 18 inches (43 centimeters (cm)) above the average plant canopy. Control plants were sprayed in the same manner with the solvent blank. All pyridine carboxylate herbicide (component a) application rates are given as “g ae/ha” and all synthetic auxin herbicide or auxin transport inhibitor (component b) application rates are given as “g ai/ha.”
as §4

[6] = tested on: Viola tricolor (wild pansy, VIOTR); assay: Greenhouse postemergence trial VIOTR;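 further: greenhouse plants sprayed at second to third true leaf stage, injury rated visually after 20-22 d against solvent-blank sprayed controls, 0 meaning no injury and 100 complete kill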
[7] = tested on: Veronica hederifolia (ivyleaf speedwell, VERHE); assay: Greenhouse postemergence trial VERHE; assay type: in vivo; settings: VERHE
Method: as §5, §6, §7, §4

[8] = tested on: Capsella bursa-pastoris (shepherd's purse, CAPBP); assay: Greenhouse postemergence trial CAPBP; assay type: in vivo; settings: CAPBP
Method: as §5, §6, §7, §4

[9] = tested on: Sinapis arvensis (wild mustard, SINAR); assay: Greenhouse postemergence trial SINAR; assay type: in vivo; settings: SINAR
Method: as §1, §2, §3, §4

[10] = tested on: Cirsium arvense (Canadian thistle, CIRAR); assay: Greenhouse postemergence trial CIRAR; assay type: in vivo; settings: CIRAR
Method: as §5, §6, §7, §4

[11] = tested on: Stellaria media (chickweed, STEME); assay: Greenhouse postemergence trial STEME; assay type: in vivo; settings: STEME
[12] = tested on: Triticum aestivum (winter wheat, TRZAW); assay: Greenhouse postemergence crop phytotoxicity TRZAW; assay type: in vivo; settings: TRZAW
[13] = tested on: Hordeum vulgare (winter barley, HORVW); assay: Greenhouse postemergence crop phytotoxicity HORVW; assay type: in vivo; settings: HORVW
[14] = tested on: Papaver rhoeas (corn poppy), herbicide-resistant (PAPRH-R); assay: Greenhouse postemergence trial PAPRH-R; assay type: in vivo; settings: PAPRH-R
[15] = tested on: Brassica napus (winter rape, BRSNW); assay: Greenhouse postemergence trial BRSNW; assay type: in vivo; settings: BRSNW
[16] = tested on: Matricaria chamomilla (wild chamomile, MATCH); assay: Greenhouse postemergence trial MATCH; assay type: in vivo; settings: MATCH;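 further: greenhouse plants sprayed at second to third true leaf stage, injury rated by eye 20-22 d later versus solvent-blank controls on 0–100 scale, 0 no injury, 100 complete kill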
[17] = tested on: Matricaria inodora (false chamomile, MATIN); assay: Greenhouse postemergence trial MATIN; assay type: in vivo; settings: MATIN
Method: as §5, §6, §7, §4

[18] = tested on: Matricaria discoidea (pineapple weed, MATMT); assay: Greenhouse postemergence trial MATMT; assay type: in vivo; settings: MATMT
[19] = tested on: Salsola kali (Russian thistle, SASKR); assay: Greenhouse postemergence trial SASKR; assay type: in vivo; settings: SASKR;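 further: greenhouse plants sprayed at second or third true leaf stage, injury rated by eye after 20-22 d against solvent-blank controls, 0 meaning no injury, 100 complete kill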
Method: as §1, §2, §3, §4

[20] = tested on: Viola arvensis (field violet, VIOAR); assay: Greenhouse postemergence trial VIOAR; assay type: in vivo; settings: VIOAR
[21] = tested on: Cyanus segetum (cornflower, CENCY); assay: Greenhouse postemergence trial CENCY; assay type: in vivo; settings: CENCY
Method: as §5, §6, §7, §4

[22] = tested on: Veronica persica (bird's-eye speedwell, VERPE); assay: Greenhouse postemergence trial VERPE; assay type: in vivo
Method: as §5, §6, §7, §4

[23] = tested on: Papaver rhoeas (corn poppy, PAPRH); assay: Greenhouse postemergence trial PAPRH; assay type: in vivo; settings: PAPRH
Method: as §5, §6, §7, §4

[24] = tested on: Anthemis arvensis (field chamomile, ANTAR); assay: Greenhouse postemergence trial ANTAR; assay type: in vivo; settings: ANTAR
Method: as §5, §6, §7, §4

[25] = tested on: Lamium purpureum (purple deadnettle, LAMPU); assay: Greenhouse postemergence trial LAMPU
[26] = tested on: Amaranthus retroflexus (pigweed, AMARE); assay: Greenhouse postemergence trial AMARE; assay type: in vivo; settings: c1-2 Compound A 7.5/10; c3 Quinclorac 140; c4-5 A 7.5/10 + Quinclorac 140 g/ha;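 further: Greenhouse-grown plants sprayed at second to third true leaf stage, injury rated by eye after 20-22 d versus solvent-blank sprayed controls, 0 = no injury, 100 = complete kill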
[27] = tested on: Chenopodium album L. (common lambsquarters, CHEAL); assay: Greenhouse postemergence trial CHEAL; assay type: in vivo; settings: c1-2 Compound A 7.5/10; c3 Quinclorac 140; c4-5 A 7.5/10 + Quinclorac 140 g/ha;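 further: greenhouse plants sprayed at second to third true leaf stage, injury rated by eye after 20-22 d versus solvent-blank sprayed controls, 0 = no injury, 100 = complete kill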
Method: as §1, §2, §3, §4

[28] = Papaver rhoeas, post-emergence, Quinclorac 560 g/ha, read-out: % visual injury Obs
[29] = c1-2 Compound A 7.5/10, c3 Quinclorac 140, c4-5 A 7.5/10 + Quinclorac 140 g/ha

Structure (SMILES): O=C(O)COc1ccc(Cl)cc1Cl [2,4-D Choline, 2,4-D choline, reference compound]
- % visual injury, Obs ([1]; in vivo): 80%
- % visual injury, Obs (crop phytotoxicity) ([2]; Triticum aestivum (spring wheat, TRZAS), in vivo): 0%
- % visual injury, Obs (crop phytotoxicity) ([3]; Hordeum vulgare (spring barley, HORVS), in vivo): 0%

Structure (SMILES): CNC.O=C(O)COc1ccc(Cl)cc1Cl [2,4-D DMA]
- % visual injury (Obs) ([1]; alone 280 g/ha): 83%
- % visual injury (Obs) ([4]; alone 280 g/ha): 55%
- % visual injury (Obs) ([2]; alone 280 g/ha): 5%
- % visual injury (Obs) ([3]; alone 280 g/ha): 0%
- % visual injury (Obs) ([5]; alone 280 g/ha): 10%
- % visual injury (Obs) ([6]; VIOTR, alone 280 g/ha): 65%

Structure (SMILES): Nc1nc(C2CC2)nc(C(=O)O)c1Cl [Aminocyclopyrachlor]
- % visual injury (Obs) ([1]; alone 25 g/ha): 30%
- % visual injury Obs ([7]; alone, 50 g/ha): 60%
- % visual injury Obs ([8]; alone, 50 g/ha): 70%
- % visual injury Obs ([9]; alone, 50 g/ha): 50%
- % visual injury Obs ([10]; alone, 50 g/ha): 85%
- % visual injury Obs ([11]; alone, 50 g/ha): 30%
- % visual injury Obs ([12]; alone, 50 g/ha): 0%
- % visual injury Obs ([13]; alone, 50 g/ha): 0%
- % visual injury Obs ([14]; alone, 50 g/ha): 60%
- % visual injury Obs ([15]; alone, 50 g/ha): 50%
- % visual injury Obs ([16]; alone, 50 g/ha): 60%
- % visual injury Obs ([4]; alone, 50 g/ha): 70%
- % visual injury (Obs) ([2]; alone 25 g/ha): 43%
- % visual injury Obs ([2]; alone, 50 g/ha): 0%
- % visual injury Obs ([17]; alone, 50 g/ha): 85%
- % visual injury Obs ([18]; alone, 50 g/ha): 50%
- % visual injury Obs ([19]; alone, 50 g/ha): 75%
- % visual injury Obs ([20]; alone, 50 g/ha): 25%
- % visual injury Obs ([21]; alone, 50 g/ha): 100%
- % visual injury Obs ([22]; VERPE, alone, 50 g/ha): 65%
- % visual injury (Obs) ([3]; alone 25 g/ha): 20%
- % visual injury Obs ([3]; alone, 50 g/ha): 0%
- % visual injury Obs ([23]; alone, 50 g/ha): 75%
- % visual injury Obs ([24]; alone, 50 g/ha): 100%
- % visual injury (Obs) ([5]; alone 25 g/ha): 78%
- % visual injury Obs ([5]; alone, 50 g/ha): 100%
- % visual injury (Obs) ([6]; VIOTR, alone 25 g/ha): 45%
- % visual injury Obs ([6]; VIOTR, alone, 50 g/ha): 30%
- % visual injury Obs ([25]; LAMPU, alone, 50 g/ha): 65%

Structure (SMILES): O=C(O)c1c(Cl)ccc2cc(Cl)cnc12 [Quinclorac, quinclorac, reference compound]
- pest or weed control ([7]; Veronica hederifolia, post-emergence, Quinclorac 560 g/ha, read-out: % visual injury Obs): 30%
- pest or weed control ([8]; Capsella bursa-pastoris, post-emergence, Quinclorac 560 g/ha, read-out: % visual injury Obs): 0%
- pest or weed control ([9]; Mutarda arvensis, post-emergence, Quinclorac 560 g/ha, read-out: % visual injury Obs): 10%
- pest or weed control ([10]; Cirsium arvense, post-emergence, Quinclorac 560 g/ha, read-out: % visual injury Obs): 30%
- pest or weed control ([11]; Stellaria media, post-emergence, Quinclorac 560 g/ha, read-out: % visual injury Obs): 5%
- % visual injury Obs ([12]; Quinclorac 560 g/ha): 0%
- % visual injury Obs ([13]; Quinclorac 560 g/ha): 0%
- pest or weed control [14, 28]: 50%
- % visual injury [26]: 0%
- plant injury ([15]; Brassica napus, post-emergence, Quinclorac 560 g/ha, read-out: % visual injury Obs): 10%
- pest or weed control ([16]; Matricaria chamomilla, post-emergence, Quinclorac 560 g/ha, read-out: % visual injury Obs): 10%
- pest or weed control ([4]; Fallopia convolvulus, post-emergence, Quinclorac 560 g/ha, read-out: % visual injury Obs): 10%
- % visual injury Obs ([2]; Quinclorac 560 g/ha): 0%
- % visual injury (crop phytotoxicity) [2, 29]: 0%
- pest or weed control ([17]; Tripleurospermum inodorum, post-emergence, Quinclorac 560 g/ha, read-out: % visual injury Obs): 0%
- pest or weed control ([18]; Matricaria discoidea, post-emergence, Quinclorac 560 g/ha, read-out: % visual injury Obs): 0%
- pest or weed control ([19]; Salsola kali, post-emergence, Quinclorac 560 g/ha, read-out: % visual injury Obs): 10%
- pest or weed control ([20]; Viola arvensis, post-emergence, Quinclorac 560 g/ha, read-out: % visual injury Obs): 30%
- pest or weed control ([21]; Centaurea cyanus, post-emergence, Quinclorac 560 g/ha, read-out: % visual injury Obs): 60%
- pest or weed control ([22]; Veronica persica, post-emergence, VERVE, Quinclorac 560 g/ha, read-out: % visual injury Obs): 50%
- % visual injury Obs ([3]; Quinclorac 560 g/ha): 0%
- % visual injury (crop phytotoxicity) [3, 29]: 5%
- pest or weed control [23, 28]: 10%
- pest or weed control ([24]; Anthemis arvensis, post-emergence, Quinclorac 560 g/ha, read-out: % visual injury Obs): 0%
- pest or weed control ([5]; Bassia scoparia, post-emergence, Quinclorac 560 g/ha, read-out: % visual injury Obs): 10%
- % visual injury [27]: 0%
- pest or weed control at 560 g/ha ([6]; Viola tricolor, post-emergence, read-out: % visual injury Obs): 10%
- pest or weed control at 560 g/ha ([25]; Lamium purpureum, post-emergence, read-out: % visual injury Obs): 10%
